The values that follow come from patent US20240150293A1, “SPIROCYCLOHEXANE DERIVATIVES, PHARMACEUTICAL COMPOSITIONS CONTAINING THEM AND THEIR USES AS ANTI-APOPTOTIC INHIBITORS” (LES LABORATOIRES SERVIER, priority 2021, published 2024).

Usually Ki stands for the dissociation constant of the complex between target and ligand, obtained from inhibition or displacement.

Each structure is given as a SMILES string.

Test [1] has as its target Cy5-labelled Mcl1 (amino acids 171-321) C286S protein (UniProtKB Q07820) (Homo sapiens (Human), UniProt Q07820, C286S). As to the kind of experiment: Inhibition of Mcl-1 by the fluorescence quenching assay (Example A, Method B). Format: binding. Summed up:
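Cy5-labelled Mcl1 171-321 C286S (1 nM) quenched by TQ5WS-labelled PUMA peptide (10, 20 or 400 nM); displacement raises fluorescence (Ex 620/Em 680 nm). Buffer 10 mM HEPES, 150 mM NaCl, 0.05% Tween 20, pH 7.4, 5% DMSO; 2 h at room temperature, 11-point curves, IC50 converted to Ki (cKi/eKi).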

The subject of test [2] is H929 multiple myeloma tumor line. As to the kind of experiment: In vitro cytotoxicity, MTT assay (Example B, Method A). The conditions noted are these: Homo sapiens, NCI-H929, 48 h, H929 cells, 48 hours exposure, read-out: C50. Format: cell-based. The protocol: The cytotoxicity studies were carried out on the H929 multiple myeloma tumor line.
The cells are distributed onto microplates and exposed to the test compounds for 48 hours. The cell viability is then quantified by a colorimetric assay, the Microculture Tetrazolium Assay (Carmichael et al, Cancer Res. 1987, 47, 939-942).
The results are expressed in C50 which means concentration corresponding to […] of effect/inhibition.
Background: Tetrazolium assays rely on reduction of a dye to a coloured formazan, in cell work by metabolically active cells.

Chain of Cy5-labelled Mcl1 (amino acids 171-321) C286S protein (Q07820 171-321 C286S): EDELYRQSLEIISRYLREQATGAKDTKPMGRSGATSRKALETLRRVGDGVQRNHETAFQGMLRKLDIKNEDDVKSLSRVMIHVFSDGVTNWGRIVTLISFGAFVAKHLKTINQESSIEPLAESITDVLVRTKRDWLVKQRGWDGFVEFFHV

Take `C[C@@H](COc1ccnc2c1[C@@H](C)CCC2)C[C@H]1Cc2cc(Cl)c(O)cc2[C@]12CC[C@@](Nc1cccc(Cl)c1)(C(=O)O)CC2` [Example 814, (1r,2′S,4S)-5′-chloro-4-(3-chloroanilino)-6′-hydroxy-2′-[(2R)-2-methyl-3-{[(5S)-5-methyl-5,6,7,8-tetrahydroquinolin-4-yl]oxy}propyl]-2′,3′-dihydrospiro[cyclohexane-1,1′-indene]-4-carboxylic acid]: the Ki in test [1] came to 3.42 nM. Moreover, the IC50 in test [2] worked out at 135 nM.
Taken in the same sequence, the figures for `C[C@@H](COc1ccnc2c1[C@H](C)CCC2)C[C@@H]1Cc2cc3c(cc2[C@]12CC[C@@](Nc1cccc(Cl)c1)(C(=O)O)CC2)OCO3` [Example 841, (1r,4R,6′R)-4-(3-chloroanilino)-6′-[(2R)-2-methyl-3-{[(5R)-5-methyl-5,6,7,8-tetrahydroquinolin-4-yl]oxy}propyl]-6′,7′-dihydro-2′H-spiro[cyclohexane-1,5′-indeno[5,6-d][1,3]dioxole]-4-carboxylic acid] were 0.172 nM and 76.6 nM.
Taken in the same sequence, the figures for `C[C@@H](COc1ccnc2c1[C@@H](C)CCC2)C[C@H]1Cc2cc3c(cc2[C@]12CC[C@@](Nc1cccc(Cl)c1)(C(=O)O)CC2)OCO3` [Example 842, (1r,4S,6′S)-4-(3-chloroanilino)-6′-[(2R)-2-methyl-3-{[(5S)-5-methyl-5,6,7,8-tetrahydroquinolin-4-yl]oxy}propyl]-6′,7′-dihydro-2′H-spiro[cyclohexane-1,5′-indeno[5,6-d][1,3]dioxole]-4-carboxylic acid] were 1.55 nM and 81 nM.
The like results for `Cc1cc2c(cc1C)[C@]1(CC[C@@](Nc3cccc(Cl)c3)(C(=O)O)CC1)[C@H](C[C@@H](C)COc1ccnc3c1[C@H](C)CCC3)C2` [Example 855, (1r,2′R,4R)-4-(3-chloroanilino)-5′,6′-dimethyl-2′-[(2R)-2-methyl-3-{[(5R)-5-methyl-5,6,7,8-tetrahydroquinolin-4-yl]oxy}propyl]-2′,3′-dihydrospiro[cyclohexane-1,1′-indene]-4-carboxylic acid] were, in that order, 0.703 nM and 50.8 nM.
In the case of `CC(=O)c1ccc2c(c1)[C@]1(CC[C@@](Nc3cccc(Cl)c3)(C(=O)O)CC1)C(C[C@@H](C)COc1ccnc3c1[C@H](C)CCC3)=C2` [Example 856, (1r,4R)-6′-acetyl-4-(3-chloroanilino)-2′-[(2R)-2-methyl-3-{[(5R)-5-methyl-5,6,7,8-tetrahydroquinolin-4-yl]oxy}propyl]spiro[cyclohexane-1,1′-indene]-4-carboxylic acid], in test [1], the Ki was determined as 0.864 nM. For the same compound, the IC50 in test [2] is 74.8 nM.
On to `CC(O)c1ccc2c(c1)[C@]1(CC[C@@](Nc3cccc(Cl)c3)(C(=O)O)CC1)C(C[C@@H](C)COc1ccnc3c1[C@H](C)CCC3)=C2` (stereo partly drawn) [Example 857, (1r,4R)-4-(3-chloroanilino)-6′-(1-hydroxyethyl)-2′-[(2R)-2-methyl-3-{[(5R)-5-methyl-5,6,7,8-tetrahydroquinolin-4-yl]oxy}propyl]spiro[cyclohexane-1,1′-indene]-4-carboxylic acid], for which, in test [1], the Ki was found to be 0.169 nM. Further, the IC50 in test [2] is 143 nM.
The like results for `CC(=O)c1ccc2c(c1)[C@]1(CC[C@@](Nc3cccc(Cl)c3)(C(=O)O)CC1)[C@@H](C[C@@H](C)COc1ccnc3c1[C@H](C)CCC3)C2` [Example 858, (1r,2′S,4S)-6′-acetyl-4-(3-chloroanilino)-2′-[(2R)-2-methyl-3-{[(5R)-5-methyl-5,6,7,8-tetrahydroquinolin-4-yl]oxy}propyl]-2′,3′-dihydrospiro[cyclohexane-1,1′-indene]-4-carboxylic acid] were, in that order, 0.0699 nM and 50.6 nM.
